Experiment [1] deals with cAMP-dependent protein kinase. Kind of experiment: PKA inhibition (specificity panel). Type of experiment: biochemical.
In experiment [2] the target is Ca^2+- dependent protein kinase. The experiment in a line: PKC inhibition (specificity panel). Type of experiment: biochemical.
Experiment [3] has as its target p34^cdc2/cyclin B. Kind of experiment: p34cdc2/cyclin B kinase assay (histone H1 phosphorylation, [32P]ATP). Type of experiment: biochemical, starfish (Marthasterias glacialis). The conditions noted are these: 1 mg histone H1/ml, 15 µM ATP, 10 min at 30°C. Here is the method: J. Biochem., 243, (1997), 527-536). […] After 10 min. incubation at 30°C, 25 μl aliquots of supernatant were spotted onto 2.5 x 3 cm pieces of Whatman P81 phosphocellulose paper, and after 20 sec., the filters were washed five times (for at least 5 min. each time) in a solution of 10 ml phosphoric acid/liter of water. The wet filters were transferred into 6 ml plastic scintillation vials, 5 ml ACS (Amersham) scintillation fluid was added and the radioactivity measured in a Packard scintillation counter.

In experiment [4] the test system is cdc25. The experiment in a line: cdc25 inhibition (specificity panel). Type of experiment: biochemical.
Experiment [5] deals with PKA. The note with it: known chemical inhibitors, Meijer 1996; cited from earlier work.
For experiment [6], the target named is CDK4 (Homo sapiens, UniProt P11802). The note with it: known chemical inhibitors, Meijer 1996; cited from earlier work.
Sequence of CDK4 (P11802 whole entry, species assumed): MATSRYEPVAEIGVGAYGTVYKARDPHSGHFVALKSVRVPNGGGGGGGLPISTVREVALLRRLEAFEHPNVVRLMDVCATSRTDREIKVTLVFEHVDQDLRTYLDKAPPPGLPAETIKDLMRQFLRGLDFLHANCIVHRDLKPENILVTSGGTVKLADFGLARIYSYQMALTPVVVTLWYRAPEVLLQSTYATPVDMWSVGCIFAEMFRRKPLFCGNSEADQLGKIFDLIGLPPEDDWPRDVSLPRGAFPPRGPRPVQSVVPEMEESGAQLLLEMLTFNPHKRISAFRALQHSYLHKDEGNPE
Sequence of CDK4 (P24385 whole entry partner, species assumed): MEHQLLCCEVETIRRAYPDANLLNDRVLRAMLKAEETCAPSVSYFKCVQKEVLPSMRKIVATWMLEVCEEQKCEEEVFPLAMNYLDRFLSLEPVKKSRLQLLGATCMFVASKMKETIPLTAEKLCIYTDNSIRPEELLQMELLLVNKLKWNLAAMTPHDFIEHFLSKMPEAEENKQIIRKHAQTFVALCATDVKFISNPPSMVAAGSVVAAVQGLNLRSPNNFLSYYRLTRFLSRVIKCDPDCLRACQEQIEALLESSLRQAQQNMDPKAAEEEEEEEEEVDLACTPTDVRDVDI

Consider five compounds from EP0966963A1, “Use of indigoid bisindole derivatives as CDK1 inhibitors” (Eisenbrand, Gerhard, Prof. Dr., priority 1998, dated 1999).

In the case of `O=C1Nc2ccc(I)cc2C1=C1Nc2ccccc2C1=O` [Example 2, 5-Iodoindirubine], in experiment [1], the “IC50 PKA” value was “no Effect”. Further, the “IC50 PKC” value in experiment [2] is “no Effect”.
What is called IC50 is the concentration that inhibits the measured activity by half. Regarding `O=C1Nc2ccccc2C1=C1Nc2ccccc2C1=O` [Example 1, Indirubine], the IC50 is 2 µM in experiment [3] and 150 µM in experiment [4]. The “IC50 PKA” value in experiment [1] was “no Effect”. In experiment [2], the “IC50 PKC” value is “no Effect”.
As to `CN1CC[C@H](c2c(O)cc(O)c3c(=O)cc(-c4ccccc4Cl)oc23)[C@H](O)C1` [Flavopiridol], the IC50 in experiment [5] was 145 µM.
Take `COC(=O)[C@@]1(Cc2ccc(O)c(CC=C(C)C)c2)OC(=O)C(O)=C1c1ccc(O)cc1` [Butyrolactone-l]: in experiment [6], the “IC50 CDK4” value was “no effect”. Besides, the IC50 in experiment [5] was 260 µM.
In the case of `O=C1Nc2ccccc2C1=C1Nc2ccccc2C1=NO` [Example 10, Indirubine-3'-oxime], the IC50 in experiment [3] stood at 0.18 µM.
